Patent publication US20230064292A1, “METHODS OF TREATING PSMA-POSITIVE CANCER USING RADIONUCLIDE THERAPY” (priority 2020, published 2023)
Several values for one entry are separate records, joined by “and”; a condition that tells them apart may be missing. Equal entries are not always repeated. Entries after “also recorded” stand apart in the source; their conditions may differ. Marks after values point to notes of the source that are not given here.

Tests used:
[1] = Pharmacokinetics of CTT1403 in mCRPC subjects (radioactivity of blood samples); format: in vivo, human
Description: In order to investigate the pharmacokinetics of CTT1403, doses were administered by IV to fifteen subjects. The subjects each had histologically confirmed prostate adenocarcinoma that was metastatic and castration resistant (mCRPA). Subjects with de novo small cell carcinoma of the prostate were excluded. The subjects further had at least three metastatic foci avid for PSMA-specific PET agent CTT1057 or 68Ga-PSMA-11 uptake. PSMA avidity was defined as SUVmax>mediastinal blood pool. The subjects had received docetaxel, were ineligible for docetaxel, or had refused docetaxel. They all further had progression by the PCWG3 criteria during or after treatment with abiraterone, enzalutamide, and/or apalutamide, and had serum testosterone<50 ng/dL. Subjects without a history of bilateral orchiectomy were required to remain on a luteinizing hormone-releasing hormone (LHRH) analog during the course of the protocol therapy.
Pharmacokinetics assessment follows the movement of drugs throughout the body, including measurement of the drug's half-life in circulation. The longer a drug remains available in circulation before being cleared from the body, the greater the opportunity for it to meet its target and achieve the desired therapeutic effect. To measure pharmacokinetics, remaining CTT1403 was estimated by measuring the radioactivity of blood sample withdrawn at particular time points. Each patient received a dose ranging from 0.75 GBq to 7.5 GBq.
This is already more than a 5.3-fold greater distribution phase and 3.5-fold greater elimination phase than the PSMA-617 agent (without the albumin binder) and will further increase as the dose increases. […] CTT anticipates that these early observations will translate to compelling efficacy as the trial progresses. Table 1 reports the blood distribution and elimination half-lives for 13 of 15 patients enrolled in the study. […] Longer clearance half-lives will advantageously yield enhanced drug delivery as CTT1403 has more time to find and bind to expressed PSMA. This effect also allows more time for the therapeutic agent to reach smaller tumors or poorly-vascularized tumors. Longer systemic circulation of CTT1403 afforded by the albumin motif believed to lead to lower dosing of the kidneys, a dose-limiting factor, allowing higher dosages to be safely administered.

[2] = Preclinical rat studies of CTT1403 kidney exposure; format: in vivo
Source text: CTT1403 localization in various organs is accomplished by estimating dosimetry using SPECT/CT or SPECT/MRI imaging of the radioisotope component (using the gamma particle emission) of CTT1403, ^177Lu, up to 8 days after the first dose. […] Preclinical studies in rats with CTT1403 identified the kidneys as the dose limiting organ. Table 2, below, summarizes kidney dosimetry calculated from the first 15 patients enrolled in the study after receipt of escalating doses of CTT1403 and contrasts it with the predicted kidney exposure from rat studies. […] Preclinical studies in rats estimated expected kidney exposure of ˜5.2 Gy/GBq. […] CTT1403 may be sequestered in tumors and under exposing the kidney.

[3] = test system: PSMA+ tumors; experiment: Tumor dosimetry and uptake by SPECT imaging in patients; format: in vivo, human
Source text: In addition to assessing radiation exposure to dose limiting organs, it is also feasible to use SPECT/CT or SPECT/MRI imaging and dosimetry to estimate CTT1403 dose to the tumor, which could indicate efficacy.
CTT1057 PSMA+ PET is used to screen patients for PSMA avid tumors prior to enrollment into the clinical trial. SPECT/CT images are collected serially on days 1, 3, 5 and 8 following CTT1403 dose administration to assess dosimetry, or exposure of normal organs and the tumor to the radionuclide, 177-lutetium. […] FIGS. 2-7 show the PET images collected prior to and after CTT1403 and serial SPECT/CT images collected from patients enrolled in the clinical trial. Further, Table 4 compares the doses in kidney and tumor reported by Violet et al (Violet, J., et al., “Dosimetry of (177)Lu-PSMA-617 in Metastatic Castration-Resistant Prostate Cancer: Correlations Between Pretherapeutic Imaging and Whole-Body Tumor Dosimetry with Treatment Outcomes” J Nucl Med, 2019. 60(4): p. 517-523) compared to findings to date in patients administered CTT1403.

[4] = 1.5 GBq IV (1st patient at this dose)
[5] = 2.0 GBq IV (1st patient at this dose)
[6] = 3.0 GBq IV (1st patient at this dose)
[7] = 3.0 GBq IV (2nd patient at this dose)
[8] = 3.0 GBq IV (3rd patient at this dose)
[9] = 4.5 GBq IV (1st patient at this dose)
[10] = 4.5 GBq IV (2nd patient at this dose)
[11] = 4.5 GBq IV (3rd patient at this dose)
[12] = 6.0 GBq IV (1st patient at this dose)
[13] = 6.0 GBq IV (2nd patient at this dose)
[14] = 6.0 GBq IV (3rd patient at this dose)
[15] = 7.5 GBq IV (1st patient at this dose)
[16] = 7.5 GBq IV (2nd patient at this dose)
[17] = half-life of CTT1403 vs reported 177Lu-PSMA-617
[18] = mean of 13 patients, 1.5-7.5 GBq IV, preliminary
[19] = CTT1403 (7.5 GBq +/− 10%), preliminary, 2 tumors per patient in patients 14 and 15
[20] = patient 1, dose 0.73 GBq (19.6 mCi)
[21] = patient 4, dose 3.0 GBq (81.1 mCi)
[22] = patient 6, dose 2.98 GBq (80.5 mCi)
[23] = patient 14, dose 7.98 GBq (215.7 mCi)
[24] = patient 15, dose 7.77 GBq (210 mCi)

O=C(O)CC[C@H](NP(=O)(O)OCCC[C@H](NC(=O)CC[C@H](NC(=O)CCCCCNC(=O)CCC(NC(=O)CCOCCOCCOCCOCCNC(=O)CCC(=O)N1Cc2ccccc2-c2c(nnn2CCCNC(=O)CN2CCN3CCN4CCN(CC2)CC(=O)[O][177Lu]([O]C(=O)C3)[O]C(=O)C4)-c2ccccc21)C(=O)NC(CCCCNC(=O)CCCc1ccc(I)cc1)C(=O)O)C(=O)O)C(=O)O)C(=O)O (some centres unmarked) [CTT1403]
Distribution Half-life [1, 4]: 0.75 h | Elimination Half-life 2 [1, 4]: 28.88 h | Distribution Half-life [1, 5]: 1.04 h | Elimination Half-life 2 [1, 5]: 23.90 h | Distribution Half-life [1, 6]: 0.51 h | Elimination Half-life 2 [1, 6]: 27.73 h | Distribution Half-life [1, 7]: 0.89 h | Elimination Half-life 2 [1, 7]: 31.51 h | Distribution Half-life [1, 8]: 0.70 h | Elimination Half-life 2 [1, 8]: 36.48 h | Distribution Half-life [1, 9]: 0.85 h | Elimination Half-life 2 [1, 9]: 33.01 h | Distribution Half-life [1, 10]: 0.85 h | Elimination Half-life 2 [1, 10]: 34.66 h | Distribution Half-life [1, 11]: 0.85 h | Elimination Half-life 2 [1, 11]: 43.32 h | Distribution Half-life [1, 12]: 0.78 h | Elimination Half-life 2 [1, 12]: 46.21 h | Distribution Half-life [1, 13]: 0.57 h | Elimination Half-life 2 [1, 13]: 30.14 h | Distribution Half-life [1, 14]: 1.06 h | Elimination Half-life 2 [1, 14]: 33.01 h | Distribution Half-life [1, 15]: 1.20 h | Elimination Half-life 2 [1, 15]: 57.76 h | Distribution Half-life [1, 16]: 1.00 h | Elimination Half-life 2 [1, 16]: 57.76 h | CTT1403 detection in blood ([1]; after 2 weeks, subjects who received the 7.5 GBq dose): still detected | fold greater distribution phase than the PSMA-617 agent [1, 17]: > 5.3 fold | fold greater elimination phase than the PSMA-617 agent [1, 17]: > 3.5 fold | Distribution half-life (mean) [1, 18]: 0.85 ± 0.2 h | Elimination half-life (mean) [1, 18]: 37.3 ± 10.9 h and 37.26 h | Distribution phase half-life, range ([1]; range over patients, 1.5-7.5 GBq IV): 0.51 to 1.2 h | circulation time compared with 177Lu-PSMA-617 ([1]; vs agent lacking the albumin binding moiety): at least two to ten-fold greater | dose limiting organ ([2]; preclinical studies in rats): kidneys | expected kidney exposure estimated from preclinical studies in rats ([2]; predicted human kidney exposure from rat studies): ~5.2 Gy/GBq | CTT1403 within tumor by SPECT ([3]; 4.5 GBq, through 7 days post-administration (FIG. 9, patient 12)): uptake of CTT1403 in tumors; also recorded: still clearly present | uptake of CTT1403 in tumors by SPECT ([3]; 24 hours after administration of 7.5 GBq (FIG. 10, patient 17)): distinct uptake | Tumor Dose to date, Dose Gy/GBq [3, 19]: 1.948* Gy/GBq | Tumor Dose to date, Mean Dose (Gy) [3, 19]: 14.61* Gy | tumor dose ([3]; administered by 3.0 GBq): ~1 Gy | Tumor 1 (Gy) [3, 20]: 0.122 Gy | Tumor 2 (Gy) [3, 20]: 0.1164 Gy | Tumor 1 (Gy) ([3]; patient 2, dose 1.5 GBq (40.5 mCi)): 0.2461 Gy | Tumor 2 (Gy) ([3]; patient 3, dose 2.03 GBq (54.8 mCi)): 0.2553 Gy | Tumor 1 (Gy) [3, 21]: 1.282 Gy | Tumor 2 (Gy) [3, 21]: 0.3729 Gy | Tumor 3 (Gy) [3, 21]: 1.906 Gy | Tumor 1 (Gy) ([3]; patient 5, dose 2.95 GBq (79.8 mCi)): 1.639 Gy | Tumor 1 (Gy) [3, 22]: 1.104 Gy | Tumor 2 (Gy) [3, 22]: 0.329 Gy | Tumor 1 (Gy) [3, 23]: 13.6 Gy | Tumor 2 (Gy) [3, 23]: 12.7 Gy | Tumor 1 (Gy) [3, 24]: 22.4 Gy | Tumor 2 (Gy) [3, 24]: 9.74 Gy | tumor dose compared to 177Lu-PSMA-617 ([3]; patients at 7.5 GBq+/−10%, early reported): at least similar and possibly even greater | tumor Gy/GBq compared to 177Lu-PSMA-617 in patients with PSA<50% ([3]; vs patients with less than a 50% reduction in circulating PSA): significantly outperform
